Assay results: US11203601B2, “Tricyclic compounds as glycogen synthase kinase 3 (GSK3) inhibitors and uses thereof” (The Broad Institute, Inc., priority 2017, dated 2021)

Experiments:
Experiment in all cases: Carna kinome panel
Assay type in all cases: biochemical
Details in all cases: read-out: % Inhibition at 10 μM of the test compound
[1] = biological target: p38δ (Homo sapiens (Human), UniProt O15264)
[2] = biological target: AKT2 (Homo sapiens (Human), UniProt P31751)
[3] = biological target: AXL (Homo sapiens (Human), UniProt P30530)
[4] = biological target: AurC (Homo sapiens (Human), UniProt Q9UQB9)
[5] = biological target: KIT(D816Y) (Homo sapiens (Human), UniProt P10721, D816Y)
[6] = biological target: PDGFRα(D842V) (Homo sapiens (Human), UniProt P16234, D842V)
[7] = biological target: CaMK2α (Homo sapiens (Human), UniProt Q9UQM7)
[8] = biological target: IRR (Homo sapiens (Human), UniProt P14616)
[9] = biological target: DCAMKL2 (Homo sapiens (Human), UniProt Q8N568)
[10] = biological target: SGK3 (Homo sapiens (Human), UniProt Q96BR1)
[11] = biological target: CDK4/CycD3 (Homo sapiens (Human), UniProt P11802)
[12] = biological target: FAK (Homo sapiens (Human), UniProt Q05397)
[13] = biological target: EEF2K (Homo sapiens (Human), UniProt O00418)
[14] = biological target: KIT(T670I) (Homo sapiens (Human), UniProt P10721, T670I)
[15] = biological target: EGFR(d746-750/T790M) (Homo sapiens (Human), UniProt P00533, DEL746-750/T790M)
[16] = biological target: MAP3K4_Cascade (Homo sapiens (Human), UniProt Q9Y6R4)
[17] = biological target: EPHA3 (Homo sapiens (Human), UniProt P29320)
[18] = biological target: MAP2K6_Cascade (Homo sapiens (Human), UniProt P52564)
[19] = biological target: HIPK2 (Homo sapiens (Human), UniProt Q9H2X6)
[20] = biological target: KIT(V560G) (Homo sapiens (Human), UniProt P10721, V560G)
[21] = biological target: FYN(isoform a) (Homo sapiens (Human), UniProt P06241)
[22] = biological target: CK1δ (Homo sapiens (Human), UniProt P48730)
[23] = biological target: Erk5 (Homo sapiens (Human), UniProt Q13164)
[24] = biological target: KIT (Homo sapiens (Human), UniProt P10721)
[25] = biological target: IKKα (Homo sapiens (Human), UniProt O15111)
[26] = biological target: SGK2 (Homo sapiens (Human), UniProt Q9HBY8)
[27] = biological target: PKCι (Homo sapiens (Human), UniProt P41743)
[28] = biological target: RSK2 (Homo sapiens (Human), UniProt P51812)
[29] = biological target: EPHA8 (Homo sapiens (Human), UniProt P29322)
[30] = biological target: EPHB4 (Homo sapiens (Human), UniProt P54760)
[31] = biological target: SLK (Homo sapiens (Human), UniProt Q9H2G2)
[32] = biological target: RET(M918T) (Homo sapiens (Human), UniProt P07949, M918T)
[33] = biological target: CLK3 (Homo sapiens (Human), UniProt P49761)

Sequence of CK1δ (P48730 whole entry): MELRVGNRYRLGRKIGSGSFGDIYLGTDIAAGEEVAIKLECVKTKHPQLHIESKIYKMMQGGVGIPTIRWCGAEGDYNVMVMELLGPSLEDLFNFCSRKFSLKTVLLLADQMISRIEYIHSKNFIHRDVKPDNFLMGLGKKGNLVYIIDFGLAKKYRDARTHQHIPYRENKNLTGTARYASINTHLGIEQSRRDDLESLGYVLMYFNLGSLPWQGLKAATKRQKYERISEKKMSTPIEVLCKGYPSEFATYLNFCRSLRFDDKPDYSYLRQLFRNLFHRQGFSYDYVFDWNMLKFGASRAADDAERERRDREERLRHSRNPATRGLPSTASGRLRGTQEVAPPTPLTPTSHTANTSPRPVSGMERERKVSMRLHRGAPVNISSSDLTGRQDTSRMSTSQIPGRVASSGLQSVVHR
Sequence of AXL (P30530 26-894): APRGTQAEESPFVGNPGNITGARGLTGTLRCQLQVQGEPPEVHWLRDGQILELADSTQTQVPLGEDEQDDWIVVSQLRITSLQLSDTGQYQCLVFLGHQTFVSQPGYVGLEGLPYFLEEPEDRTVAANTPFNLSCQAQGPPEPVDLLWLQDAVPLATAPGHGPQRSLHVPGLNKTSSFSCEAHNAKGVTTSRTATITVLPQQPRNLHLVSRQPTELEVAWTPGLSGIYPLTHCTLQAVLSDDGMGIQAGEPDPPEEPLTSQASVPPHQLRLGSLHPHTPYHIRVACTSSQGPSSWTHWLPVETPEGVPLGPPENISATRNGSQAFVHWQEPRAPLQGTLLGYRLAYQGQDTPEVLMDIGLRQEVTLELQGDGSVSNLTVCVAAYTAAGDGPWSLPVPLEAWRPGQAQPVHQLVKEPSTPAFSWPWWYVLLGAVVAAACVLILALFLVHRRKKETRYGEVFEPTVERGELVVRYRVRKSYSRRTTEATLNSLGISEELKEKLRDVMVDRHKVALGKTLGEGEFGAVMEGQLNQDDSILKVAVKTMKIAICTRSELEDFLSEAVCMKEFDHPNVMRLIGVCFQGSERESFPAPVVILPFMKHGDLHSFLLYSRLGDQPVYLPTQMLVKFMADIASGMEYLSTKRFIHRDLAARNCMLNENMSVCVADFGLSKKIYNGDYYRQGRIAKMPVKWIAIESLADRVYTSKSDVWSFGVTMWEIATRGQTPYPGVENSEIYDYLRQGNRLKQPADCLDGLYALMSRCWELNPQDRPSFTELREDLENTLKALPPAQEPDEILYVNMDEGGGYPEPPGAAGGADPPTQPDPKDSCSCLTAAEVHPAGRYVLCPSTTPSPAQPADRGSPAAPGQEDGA
Sequence of EGFR(d746-750/T790M) (P00533 other isoform, or with tags, fused parts or gaps T790M/del 1-668/del 746-750 limits assumed): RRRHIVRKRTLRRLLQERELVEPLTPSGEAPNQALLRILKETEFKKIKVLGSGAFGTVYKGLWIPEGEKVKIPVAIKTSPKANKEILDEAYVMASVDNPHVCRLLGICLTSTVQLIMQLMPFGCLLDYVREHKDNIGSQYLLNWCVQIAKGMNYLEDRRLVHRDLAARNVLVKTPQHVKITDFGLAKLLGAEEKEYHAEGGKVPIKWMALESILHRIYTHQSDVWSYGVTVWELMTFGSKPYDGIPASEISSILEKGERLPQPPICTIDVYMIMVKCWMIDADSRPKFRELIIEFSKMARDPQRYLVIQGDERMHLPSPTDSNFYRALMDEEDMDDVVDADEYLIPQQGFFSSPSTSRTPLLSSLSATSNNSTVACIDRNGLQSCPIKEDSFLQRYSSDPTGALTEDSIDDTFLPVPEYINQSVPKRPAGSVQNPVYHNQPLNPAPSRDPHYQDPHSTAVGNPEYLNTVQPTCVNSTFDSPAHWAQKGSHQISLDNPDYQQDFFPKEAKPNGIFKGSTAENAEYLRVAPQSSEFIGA
Sequence of IKKα (O15111 whole entry): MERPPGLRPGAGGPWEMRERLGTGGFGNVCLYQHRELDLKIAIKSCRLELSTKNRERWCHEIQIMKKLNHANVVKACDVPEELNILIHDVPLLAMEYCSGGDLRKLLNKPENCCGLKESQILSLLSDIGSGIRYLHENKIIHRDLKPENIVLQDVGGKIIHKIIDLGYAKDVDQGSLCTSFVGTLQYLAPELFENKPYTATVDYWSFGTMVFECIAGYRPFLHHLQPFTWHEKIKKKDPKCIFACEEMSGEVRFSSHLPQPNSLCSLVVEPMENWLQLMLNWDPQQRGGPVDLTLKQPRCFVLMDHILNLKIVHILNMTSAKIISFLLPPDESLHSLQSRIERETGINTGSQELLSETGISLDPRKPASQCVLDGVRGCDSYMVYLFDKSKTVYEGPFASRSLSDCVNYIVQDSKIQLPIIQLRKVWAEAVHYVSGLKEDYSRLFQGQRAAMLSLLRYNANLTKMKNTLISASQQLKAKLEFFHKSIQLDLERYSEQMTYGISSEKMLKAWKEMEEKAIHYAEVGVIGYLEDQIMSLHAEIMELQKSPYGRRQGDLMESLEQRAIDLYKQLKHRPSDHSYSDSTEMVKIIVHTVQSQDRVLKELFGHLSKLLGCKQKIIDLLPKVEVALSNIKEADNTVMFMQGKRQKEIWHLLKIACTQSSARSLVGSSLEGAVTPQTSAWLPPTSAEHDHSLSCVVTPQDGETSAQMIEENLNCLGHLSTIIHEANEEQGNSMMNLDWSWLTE
Sequence of IRR (P14616 27-1297): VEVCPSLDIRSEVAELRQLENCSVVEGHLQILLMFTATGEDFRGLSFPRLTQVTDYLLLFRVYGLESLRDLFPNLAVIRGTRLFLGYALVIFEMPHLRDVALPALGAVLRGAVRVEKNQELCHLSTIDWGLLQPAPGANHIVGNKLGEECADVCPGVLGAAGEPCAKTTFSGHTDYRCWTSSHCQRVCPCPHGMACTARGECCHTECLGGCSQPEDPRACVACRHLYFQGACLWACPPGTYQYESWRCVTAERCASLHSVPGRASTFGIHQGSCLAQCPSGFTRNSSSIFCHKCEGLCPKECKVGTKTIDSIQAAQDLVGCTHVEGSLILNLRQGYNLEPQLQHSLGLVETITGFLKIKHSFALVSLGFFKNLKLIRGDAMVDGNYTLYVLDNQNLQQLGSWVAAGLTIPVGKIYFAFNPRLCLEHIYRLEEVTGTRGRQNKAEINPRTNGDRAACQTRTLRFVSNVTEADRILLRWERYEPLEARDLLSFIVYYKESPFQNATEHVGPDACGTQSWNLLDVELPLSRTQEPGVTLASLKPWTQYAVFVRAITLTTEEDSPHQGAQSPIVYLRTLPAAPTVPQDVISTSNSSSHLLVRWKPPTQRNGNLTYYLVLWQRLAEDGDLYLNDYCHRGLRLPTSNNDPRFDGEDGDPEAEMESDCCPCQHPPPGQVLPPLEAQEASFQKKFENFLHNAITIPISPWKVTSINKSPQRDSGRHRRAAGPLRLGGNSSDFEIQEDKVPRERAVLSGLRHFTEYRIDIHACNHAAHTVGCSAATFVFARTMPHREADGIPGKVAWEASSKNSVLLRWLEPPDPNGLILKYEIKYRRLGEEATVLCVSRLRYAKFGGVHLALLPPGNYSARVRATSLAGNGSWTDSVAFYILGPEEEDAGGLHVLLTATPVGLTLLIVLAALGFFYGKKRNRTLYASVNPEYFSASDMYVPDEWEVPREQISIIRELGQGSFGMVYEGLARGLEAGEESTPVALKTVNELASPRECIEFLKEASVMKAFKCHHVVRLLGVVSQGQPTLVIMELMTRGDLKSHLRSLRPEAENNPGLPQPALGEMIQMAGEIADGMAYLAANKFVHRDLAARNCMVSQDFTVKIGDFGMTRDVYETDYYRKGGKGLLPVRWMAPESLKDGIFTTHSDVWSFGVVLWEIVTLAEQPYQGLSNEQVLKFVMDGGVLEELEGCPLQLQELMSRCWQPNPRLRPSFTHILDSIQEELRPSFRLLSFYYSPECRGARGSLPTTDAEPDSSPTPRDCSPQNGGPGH
Sequence of EPHA8 (P29322 28-1005): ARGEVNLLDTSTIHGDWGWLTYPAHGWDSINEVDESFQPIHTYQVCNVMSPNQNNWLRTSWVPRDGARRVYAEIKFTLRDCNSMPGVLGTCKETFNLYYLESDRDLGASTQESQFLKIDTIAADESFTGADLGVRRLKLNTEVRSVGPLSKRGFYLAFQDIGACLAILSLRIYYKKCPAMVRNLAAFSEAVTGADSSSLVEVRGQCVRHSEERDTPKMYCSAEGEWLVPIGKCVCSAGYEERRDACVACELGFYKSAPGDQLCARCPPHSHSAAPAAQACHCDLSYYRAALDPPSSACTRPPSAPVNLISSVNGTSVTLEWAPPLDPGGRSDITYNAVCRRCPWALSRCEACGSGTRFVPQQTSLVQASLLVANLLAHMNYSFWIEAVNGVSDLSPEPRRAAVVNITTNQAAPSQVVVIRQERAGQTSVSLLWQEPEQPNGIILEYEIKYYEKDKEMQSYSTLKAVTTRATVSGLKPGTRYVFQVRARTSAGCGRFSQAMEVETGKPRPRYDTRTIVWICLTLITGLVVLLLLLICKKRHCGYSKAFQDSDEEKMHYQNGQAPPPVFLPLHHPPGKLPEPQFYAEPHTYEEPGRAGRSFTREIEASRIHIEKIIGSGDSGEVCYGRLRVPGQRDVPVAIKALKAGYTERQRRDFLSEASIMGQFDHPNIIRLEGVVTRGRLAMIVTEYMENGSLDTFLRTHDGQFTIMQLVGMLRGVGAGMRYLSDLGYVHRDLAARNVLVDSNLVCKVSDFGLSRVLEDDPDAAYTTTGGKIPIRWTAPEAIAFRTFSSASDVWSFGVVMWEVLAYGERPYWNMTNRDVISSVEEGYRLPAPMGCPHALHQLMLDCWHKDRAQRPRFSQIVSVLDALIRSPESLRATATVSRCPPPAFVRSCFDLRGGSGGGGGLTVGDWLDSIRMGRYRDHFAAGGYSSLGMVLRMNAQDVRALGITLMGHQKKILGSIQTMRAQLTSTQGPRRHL

CCC1(c2ccccc2)C2=C(CC(C)(C)CC2=O)Nc2ncsc21 (stereo not drawn) [Compound 1, 9-Ethyl-6,6-dimethyl-9-phenyl-5,6,7,9-tetrahydrothiazolo[4,5-b]quinolin-8(4H)-one]
inhibition at 10 µM [1]: 18% | inhibition at 10 µM [2]: 1% | inhibition at 10 µM [3]: 6.5% | inhibition at 10 µM [4]: 8.5% | inhibition at 10 µM [5]: -4.7% | inhibition at 10 µM [6]: -3.4% | inhibition at 10 µM [7]: -1.6% | inhibition at 10 µM [8]: 6.6% | inhibition at 10 µM [9]: -7.6% | inhibition at 10 µM [10]: -2.3% | inhibition at 10 µM [11]: 18.1% | inhibition at 10 µM [12]: -2% | inhibition at 10 µM [13]: 1.6% | inhibition at 10 µM [14]: -4.2% | inhibition at 10 µM [15]: -5.6% | inhibition at 10 µM [16]: 10.1% | inhibition at 10 µM [17]: 22.5% | inhibition at 10 µM [18]: 5.6% | inhibition at 10 µM [19]: -2.5% | inhibition at 10 µM [20]: -5.8% | inhibition at 10 µM [21]: 1.8% | inhibition at 10 µM [22]: 8.2% | inhibition at 10 µM [23]: -0.6% | inhibition at 10 µM [24]: 7.1% | inhibition at 10 µM [25]: -1.6% | inhibition at 10 µM [26]: -8.7% | inhibition at 10 µM [27]: -2.7% | inhibition at 10 µM [28]: 1.4% | inhibition at 10 µM [29]: 3% | inhibition at 10 µM [30]: 5.3% | inhibition at 10 µM [31]: -0.6% | inhibition at 10 µM [32]: 0.6% | inhibition at 10 µM [33]: 3.9%
